In US10821115B2, “Compounds that inhibit Mcl-1 protein” (priority 2017, dated 2020):
Where two headings read alike, the source gives them in different places.

What was measured:
[1] = system: human multiple myeloma cell line, OPM-2; experiment: Cell viability assay (OPM-2 10 FBS), CellTiter-Glo; assay type: cell-based
Outline: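 IC50 values come from 4-parameter logistic fits of luminescence signals reflecting cell viability. Treatment lasted 16 h at 37 °C in complete medium with 10% FBS, starting from 3000 cells/well.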

[2] = target: recombinant human Mcl-1 (residues 171-327) / Bim interaction (Homo sapiens (Human), UniProt Q07820); experiment: biochemical; assay type: binding; conditions: 0.1 nM Mcl-1(171-327), 0.05 nM biotin-Bim (51-76); read-out: Mcl-1 HTRF IC50
[3] = Homo sapiens, OPM-2, 16 h, read-out: OPM-2 10% FBS IC50 IP, OPM-2 cells, 10% FBS, 16 h incubation

Chain of recombinant human Mcl-1 (residues 171-327) / Bim interaction (Q07820 171-327): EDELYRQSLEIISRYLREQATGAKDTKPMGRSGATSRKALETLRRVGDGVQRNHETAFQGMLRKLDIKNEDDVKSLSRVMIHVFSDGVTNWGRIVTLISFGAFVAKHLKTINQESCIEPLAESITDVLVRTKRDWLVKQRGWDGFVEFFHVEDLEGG

| Compound | IC50 [1, 3] [nM] | IC50 [2] [nM] | IC50 ([1]; read-out: OPM-2 10% FBS IC50 IP, OPM-2 cells, 10% FBS, 16 h incubation) [nM] |
| --- | --- | --- | --- |
| CO[C@@]1(CN2CCn3ccnc3C2)/C=C/C[C@H](C)[C@@H](C)S(=O)(=O)NC(=O)c2ccc3c(c2)N(C[C@@H]2CC[C@H]21)C[C@@]1(CCCc2cc(Cl)ccc21)CO3 [Example 201, (1S,3′R,6′R,7′S,8′E,11′S,12′R)-6-chloro-7′-(5,6-dihydroimidazo[1,2-a]pyrazin-7(8H)-ylmethyl)-7′-methoxy-11′,12′-dimethyl-3,4-dihydro-2H,15′H-spiro[naphthalene-1,22′-[20]oxa[13]thia[1,14]diazatetracyclo [14.7.2.0~3,6~.0~19,24~]pentacosa[8,16,18,24]tetraen]-15′-one 13′,13′-dioxide] | 244 | 0.119 | – |
| CO[C@@]1(CN2CC3(C2)CS(=O)(=O)C3)/C=C/C[C@H](C)[C@@H](C)S(=O)(=O)NC(=O)c2ccc3c(c2)N(C[C@@H]2CC[C@H]21)C[C@@]1(CCCc2cc(Cl)ccc21)CO3 [Example 202, (1S,3′R,6′R,7′S,8′E,11′S,12′R)-6-chloro-7′-((2,2-dioxido-2-thia-6-azaspiro[3 .3]hept-6-yl)methyl)-7′-methoxy-11′,12′-dimethyl-3,4-dihydro-2H,15′H-spiro[naphthalene-1,22′-[20]oxa[13]thia[1,14]diazatetracyclo [14.7.2.0~3,6~.0~19,24~]pentacosa[8,16,18,24]tetraen]-15′-one 13′,13′-dioxide] | 142 | 0.058 | – |
| CO[C@@]1(CN2CC3(COC3)C2)/C=C/C[C@H](C)[C@@H](C)S(=O)(=O)NC(=O)c2ccc3c(c2)N(C[C@@H]2CC[C@H]21)C[C@@]1(CCCc2cc(Cl)ccc21)CO3 [Example 203, (1S,3′R,6′R,7′S,8′E,11′S,12′R)-6-chloro-7′-methoxy-11′,12′-dimethyl-7′-(2-oxa-6-azaspiro[3.3]hept-6-ylmethyl)-3,4-dihydro-2H,15′H-spiro[naphthalene-1,22′-[20]oxa[13]thia[1,14]diazatetracyclo [14.7.2.0~3,6~.0~19,24~]pentacosa[8,16,18,24]tetraen]-15′-one 13′,13′-dioxide] | 112 | 0.113 | – |
| CO[C@@]1(CN2CC3(C2)CN(C(=O)OC(C)(C)C)C3)/C=C/C[C@H](C)[C@@H](C)S(=O)(=O)NC(=O)c2ccc3c(c2)N(C[C@@H]2CC[C@H]21)C[C@@]1(CCCc2cc(Cl)ccc21)CO3 [Example 204, tert-butyl 6-(((1S,3′R,6′R,7′S,8′E,11′S, 12′R)-6-chloro-7′-methoxy-11′,12′-dimethyl-13′,13′-dioxido-15′-oxo-3,4-dihydro-2H-spiro[naphthalene-1,22′-[20]oxa[13]thia[1,14]diazatetracyclo [14.7.2.0~3,6~.0~19,24~]pentacosa[8,16,18,24]tetraen]-7′-yl)methyl)-2,6-diazaspiro[3.3]heptane-2-carboxylate] | 319 | 0.23 | – |
| CO[C@@]1(CN2CCc3[nH]nnc3C2)/C=C/C[C@H](C)[C@@H](C)S(=O)(=O)NC(=O)c2ccc3c(c2)N(C[C@@H]2CC[C@H]21)C[C@@]1(CCCc2cc(Cl)ccc21)CO3 [Example 205, (1S,3′R,6′R,7′S,8′E,11′S,12′R)-6-chloro-7′-methoxy-11′,12′-dimethyl-7′-(1,4,6,7-tetrahydro-5H-[1,2,3]triazolo[4,5-c]pyridin-5-ylmethyl)-3,4-dihydro-2H,15′H-spiro[naphthalene-1,22′-[20]oxa[13]thia[1,14]diazatetracyclo [14.7.2.0~3,6~.0~19,24~]pentacosa[8,16,18,24]tetraen]-15′-one 13′,13′-dioxide] | 437 | 0.263 | – |
| CO[C@@]1(CN2CC(CO)(CO)C2)/C=C/C[C@H](C)[C@@H](C)S(=O)(=O)NC(=O)c2ccc3c(c2)N(C[C@@H]2CC[C@H]21)C[C@@]1(CCCc2cc(Cl)ccc21)CO3 [Example 206, (1S,3′R,6′R,7′S,8′E,11′S,12′R)-7′-((3,3-bis(hydroxymethyl)-1-azetidinyl)methyl)-6-chloro-7′-methoxy-11′,12′-dimethyl-3,4-dihydro-2H,15′H-spiro[naphthalene-1,22′-[20]oxa[13]thia[1,14]diazatetracyclo [14.7.2.0~3,6~.0~19,24~]pentacosa[8,16,18,24]tetraen]-15′-one 13′,13′-dioxide] | 6300 | 0.223 | – |
| CO[C@@]1(CN2CCn3nncc3C2)/C=C/C[C@H](C)[C@@H](C)S(=O)(=O)NC(=O)c2ccc3c(c2)N(C[C@@H]2CC[C@H]21)C[C@@]1(CCCc2cc(Cl)ccc21)CO3 [Example 207, (1S,3′R,6′R,7′S,8′E,11′S,12′R)-6-chloro-7′-(6,7-dihydro[1,2,3]triazolo[1,5-a]pyrazin-5(4H)-ylmethyl)-7′-methoxy-11′,12′-dimethyl-3,4-dihydro-2H,15′H-spiro[naphthalene-1,22′-[20]oxa[13]thia[1,14]diazatetracyclo [14.7.2.0~3,6~.0~19,24~]pentacosa[8,16,18,24]tetraen]-15′-one 13′,13′-dioxide] | 395 | 0.137 | – |
| CO[C@@]1(CN2CCC23COC3)/C=C/C[C@H](C)[C@@H](C)S(=O)(=O)NC(=O)c2ccc3c(c2)N(C[C@@H]2CC[C@H]21)C[C@@]1(CCCc2cc(Cl)ccc21)CO3 [Example 208, (1S,3′R,6′R,7′S,8′E,11′S,12′R)-6-chloro-7′-methoxy-11′,12′-dimethyl-7′-(6-oxa-1-azaspiro[3.3]hept-1-ylmethyl)-3,4-dihydro-2H,15′H-spiro[naphthalene-1,22′-[20]oxa[13]thia[1,14]diazatetracyclo [14.7.2.0~3,6~.0~19,24~]pentacosa[8,16,18,24]tetraen]-15′-one 13′,13′-dioxide] | 368 | 0.099 | – |
| CO[C@@]1(CN2CCc3ncsc3C2)/C=C/C[C@H](C)[C@@H](C)S(=O)(=O)NC(=O)c2ccc3c(c2)N(C[C@@H]2CC[C@H]21)C[C@@]1(CCCc2cc(Cl)ccc21)CO3 [Example 209] | 437 | 0.552 | – |
| CO[C@@]1(CN2CCN3CCN(C)C[C@@H]3C2)/C=C/C[C@H](C)[C@@H](C)S(=O)(=O)NC(=O)c2ccc3c(c2)N(C[C@@H]2CC[C@H]21)C[C@@]1(CCCc2cc(Cl)ccc21)CO3 [Example 210] | – | 0.138 | 185 |
| CO[C@@]1(CN2CCc3cncnc3C2)/C=C/C[C@H](C)[C@@H](C)S(=O)(=O)NC(=O)c2ccc3c(c2)N(C[C@@H]2CC[C@H]21)C[C@@]1(CCCc2cc(Cl)ccc21)CO3 [Example 211] | 156 | 0.147 | – |
| CON(C)C[C@]1(OC)/C=C/C[C@H](C)[C@@H](C)S(=O)(=O)NC(=O)c2ccc3c(c2)N(C[C@@H]2CC[C@H]21)C[C@@]1(CCCc2cc(Cl)ccc21)CO3 [Example 212, (1S,3′R,6′R,7′S,8′E,11′S,12′R)-6-chloro-7′-methoxy-7′-((methoxy(methyl)amino)methyl)-11′,12′-dimethyl-3,4-dihydro-2H,15′H-spiro[naphthalene-1,22′-[20]oxa[13]thia[1,14]diazatetracyclo [14.7.2.0~3,6~.0~19,24~]pentacosa[8,16,18,24]tetraen]-15′-one 13′,13′-dioxide] | 307 | 0.122 | – |
